Two compounds from ChEMBL document CHEMBL5678812, “Inhibitors of p21-activated kinases (PAKs)” (J Med Chem, 2015) can be followed below.

Assay [1] concerns the target Phosphorylase b kinase gamma catalytic chain, liver/testis isoform (Homo sapiens) (UniProt P15735). Nature of the assay: Inhibition of PhKgamma2 (unknown origin) at 0.1 uM relative to control.
Assay [2] concerns the target Rho-associated protein kinase 1 (Homo sapiens) (UniProt Q13464). Nature of the assay: Inhibition of ROCK1 (unknown origin) at 0.1 uM relative to control.
The target of assay [3] is cAMP-dependent protein kinase catalytic subunit PRKX (Homo sapiens) (UniProt P51817). Put plainly: Inhibition of PrKX (unknown origin) at 0.1 uM relative to control.
The target of assay [4] is RAC-alpha serine/threonine-protein kinase (Homo sapiens) (UniProt P31749). Nature of the assay: Inhibition of AKT1 (unknown origin) at 0.1 uM relative to control.
Sequence of RAC-alpha serine/threonine-protein kinase (Homo sapiens) (P31749 whole entry): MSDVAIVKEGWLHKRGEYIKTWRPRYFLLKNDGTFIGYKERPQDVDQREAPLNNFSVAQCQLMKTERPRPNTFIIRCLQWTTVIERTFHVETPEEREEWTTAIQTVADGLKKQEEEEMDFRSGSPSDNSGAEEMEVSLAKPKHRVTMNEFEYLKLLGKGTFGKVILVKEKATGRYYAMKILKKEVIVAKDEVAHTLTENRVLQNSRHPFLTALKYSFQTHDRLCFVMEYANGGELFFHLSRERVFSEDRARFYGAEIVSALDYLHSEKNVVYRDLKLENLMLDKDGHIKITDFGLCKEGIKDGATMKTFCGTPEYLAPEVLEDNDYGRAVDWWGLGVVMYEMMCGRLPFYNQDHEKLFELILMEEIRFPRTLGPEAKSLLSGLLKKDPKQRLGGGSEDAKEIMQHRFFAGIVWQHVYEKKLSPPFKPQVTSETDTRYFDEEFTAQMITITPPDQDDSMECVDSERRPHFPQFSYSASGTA
For assay [5], the target named is G protein-coupled receptor kinase 6 (Homo sapiens) (UniProt P43250). Put plainly: Inhibition of GRK6 (unknown origin) at 0.1 uM relative to control.
For assay [6], the target named is Casein kinase I isoform gamma-1 (Homo sapiens) (UniProt Q9HCP0). Nature of the assay: Inhibition of CK1gamma1 (unknown origin) at 0.1 uM relative to control.
Assay [7] deals with Tyrosine-protein kinase CSK (Homo sapiens) (UniProt P41240). Put plainly: Inhibition of CSK (unknown origin) at 0.1 uM relative to control.
Assay [8] has as its target Testis-specific serine/threonine-protein kinase 1 (Homo sapiens) (UniProt Q9BXA7). Put plainly: Inhibition of TSSK1 (unknown origin) at 0.1 uM relative to control.
Assay [9] addresses Macrophage-stimulating protein receptor (Homo sapiens) (UniProt Q04912). Nature of the assay: Inhibition of Ron (unknown origin) at 0.1 uM relative to control.
Assay [10] addresses Serine/threonine-protein kinase PLK2 (Homo sapiens) (UniProt Q9NYY3). Nature of the assay: Inhibition of PLK2 (unknown origin) at 0.1 uM relative to control.
Assay [11] deals with DNA-PK/Ku70/Ku85 (Homo sapiens) (UniProt P78527+P12956+P13010). Nature of the assay: Inhibition of DNA-PK (unknown origin) at 0.1 uM relative to control. It counts as protein-complex assay.
Assay [12] concerns the target Tyrosine-protein kinase Lyn (Homo sapiens) (UniProt P07948). Nature of the assay: Inhibition of Lyn (unknown origin) at 0.1 uM relative to control.
The target in assay [13] is Serine/threonine-protein kinase DCLK2 (Homo sapiens) (UniProt Q8N568). Nature of the assay: Inhibition of DCAMKL2 (unknown origin) at 0.1 uM relative to control.
Assay [14] has as its target Dual specificity tyrosine-phosphorylation-regulated kinase 1B (Homo sapiens) (UniProt Q9Y463). Put plainly: Inhibition of DYRK1B (unknown origin) at 0.1 uM relative to control.
Assay [15] has as its target Vascular endothelial growth factor receptor 1 (Homo sapiens) (UniProt P17948). Put plainly: Inhibition of Flt1 (unknown origin) at 0.1 uM relative to control.
Assay [16] concerns the target Muscle, skeletal receptor tyrosine-protein kinase (Homo sapiens) (UniProt O15146). Put plainly: Inhibition of MUSK (unknown origin) at 0.1 uM relative to control.
Assay [17] deals with Tyrosine-protein kinase Yes (Homo sapiens) (UniProt P07947). Nature of the assay: Inhibition of Yes (unknown origin) at 0.1 uM relative to control.
Assay [18] has as its target RAC-beta serine/threonine-protein kinase (Homo sapiens) (UniProt P31751). Put plainly: Inhibition of AKT2 (unknown origin) at 0.1 uM relative to control.
Assay [19] addresses Serine/threonine-protein kinase Nek2 (Homo sapiens) (UniProt P51955). Put plainly: Inhibition of NEK2 (unknown origin) at 0.1 uM relative to control.
For assay [20], the target named is Serine/threonine-protein kinase pim-2 (Homo sapiens) (UniProt Q9P1W9). Put plainly: Inhibition of PIM2 (unknown origin) at 0.1 uM relative to control.
Assay [21] deals with MAP kinase-activated protein kinase 2 (Homo sapiens) (UniProt P49137). Nature of the assay: Inhibition of MAPKAPK2 (unknown origin) at 0.1 uM relative to control.
In assay [22] the target is Ribosomal protein S6 kinase alpha-6 (Homo sapiens) (UniProt Q9UK32). Nature of the assay: Inhibition of Rsk4 (unknown origin) at 0.1 uM relative to control.
Assay [23] addresses Interleukin-1 receptor-associated kinase 4 (Homo sapiens) (UniProt Q9NWZ3). Nature of the assay: Inhibition of IRAK4 (unknown origin) at 0.1 uM relative to control.
The target of assay [24] is Serine/threonine-protein kinase BRSK1 (Homo sapiens) (UniProt Q8TDC3). Put plainly: Inhibition of BrSK1 (unknown origin) at 0.1 uM relative to control.
The target in assay [25] is Beta-adrenergic receptor kinase 1 (Homo sapiens) (UniProt P25098). Put plainly: Inhibition of GRK2 (unknown origin) at 0.1 uM relative to control.
The target in assay [26] is Casein kinase I isoform delta (Homo sapiens) (UniProt P48730). Put plainly: Inhibition of CK1delta (unknown origin) at 0.1 uM relative to control.
The target of assay [27] is Epidermal growth factor receptor (Homo sapiens) (UniProt P00533). Nature of the assay: Inhibition of EGFR (unknown origin) at 0.1 uM relative to control.
The target in assay [28] is Ephrin type-A receptor 2 (Homo sapiens) (UniProt P29317). Put plainly: Inhibition of EphA2 (unknown origin) at 0.1 uM relative to control.
Sequence of Ephrin type-A receptor 2 (Homo sapiens) (P29317 whole entry, the tested form may be a part): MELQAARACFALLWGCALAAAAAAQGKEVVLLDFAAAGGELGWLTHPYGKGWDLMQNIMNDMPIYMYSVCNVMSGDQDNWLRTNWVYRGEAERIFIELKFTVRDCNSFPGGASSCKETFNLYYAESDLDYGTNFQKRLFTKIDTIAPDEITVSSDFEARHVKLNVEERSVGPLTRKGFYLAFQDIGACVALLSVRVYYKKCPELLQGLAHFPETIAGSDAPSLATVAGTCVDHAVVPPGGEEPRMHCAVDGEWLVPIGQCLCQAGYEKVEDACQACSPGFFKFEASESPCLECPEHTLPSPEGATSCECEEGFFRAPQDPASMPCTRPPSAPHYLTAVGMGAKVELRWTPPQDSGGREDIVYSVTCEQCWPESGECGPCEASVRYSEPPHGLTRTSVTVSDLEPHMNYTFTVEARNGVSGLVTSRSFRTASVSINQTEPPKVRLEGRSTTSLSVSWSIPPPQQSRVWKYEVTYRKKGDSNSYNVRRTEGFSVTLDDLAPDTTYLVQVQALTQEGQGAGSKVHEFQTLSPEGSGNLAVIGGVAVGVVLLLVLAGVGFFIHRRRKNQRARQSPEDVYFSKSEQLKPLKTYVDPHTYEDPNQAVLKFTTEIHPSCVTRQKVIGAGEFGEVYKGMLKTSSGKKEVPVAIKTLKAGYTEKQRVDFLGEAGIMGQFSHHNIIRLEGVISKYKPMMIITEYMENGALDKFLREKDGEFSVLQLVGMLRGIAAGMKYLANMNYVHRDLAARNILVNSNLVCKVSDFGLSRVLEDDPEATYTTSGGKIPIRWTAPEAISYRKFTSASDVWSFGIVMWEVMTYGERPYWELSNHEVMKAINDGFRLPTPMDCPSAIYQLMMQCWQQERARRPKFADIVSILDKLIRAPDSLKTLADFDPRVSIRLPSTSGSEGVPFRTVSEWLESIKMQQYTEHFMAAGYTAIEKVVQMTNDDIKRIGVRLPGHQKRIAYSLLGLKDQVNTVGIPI
Assay [29] concerns the target PAS domain-containing serine/threonine-protein kinase (Homo sapiens) (UniProt Q96RG2). Nature of the assay: Inhibition of PASK (unknown origin) at 0.1 uM relative to control.
Assay [30] deals with Mitogen-activated protein kinase 12 (Homo sapiens) (UniProt P53778). Nature of the assay: Inhibition of p38gamma (unknown origin) at 0.1 uM relative to control.
In assay [31] the target is Ephrin type-A receptor 8 (Homo sapiens) (UniProt P29322). Nature of the assay: Inhibition of EphA8 (unknown origin) at 0.1 uM relative to control.
Assay [32] has as its target Protein kinase C epsilon type (Homo sapiens) (UniProt Q02156). Put plainly: Inhibition of PKCepsilon (unknown origin) at 0.1 uM relative to control.
The target of assay [33] is Tyrosine-protein kinase JAK1 (Homo sapiens) (UniProt P23458). Nature of the assay: Inhibition of JAK1 (unknown origin) at 0.1 uM relative to control.
The target of assay [34] is Dual specificity protein kinase CLK3 (Homo sapiens) (UniProt P49761). Put plainly: Inhibition of CLK3 (unknown origin) at 0.1 uM relative to control.
The target in assay [35] is Tyrosine-protein kinase Fes/Fps (Homo sapiens) (UniProt P07332). Nature of the assay: Inhibition of Fes (unknown origin) at 0.1 uM relative to control.
For assay [36], the target named is Angiopoietin-1 receptor (Homo sapiens) (UniProt Q02763). Nature of the assay: Inhibition of Tie2 (unknown origin) at 0.1 uM relative to control.
Assay [37] addresses Tyrosine-protein kinase Lyn (Homo sapiens) (UniProt P07948). Nature of the assay: Inhibition of LynB (unknown origin) at 0.1 uM relative to control.
For assay [38], the target named is Serine/threonine-protein kinase WNK2 (Homo sapiens) (UniProt Q9Y3S1). Nature of the assay: Inhibition of WNK2 (unknown origin) at 0.1 uM relative to control.
The target in assay [39] is LIM domain kinase 1 (Homo sapiens) (UniProt P53667). Put plainly: Inhibition of LIMK1 (unknown origin) at 0.1 uM relative to control.

Each structure is given as a SMILES string.

Sequence of Tyrosine-protein kinase Lyn (Homo sapiens) (P07948 2-512 limits assumed): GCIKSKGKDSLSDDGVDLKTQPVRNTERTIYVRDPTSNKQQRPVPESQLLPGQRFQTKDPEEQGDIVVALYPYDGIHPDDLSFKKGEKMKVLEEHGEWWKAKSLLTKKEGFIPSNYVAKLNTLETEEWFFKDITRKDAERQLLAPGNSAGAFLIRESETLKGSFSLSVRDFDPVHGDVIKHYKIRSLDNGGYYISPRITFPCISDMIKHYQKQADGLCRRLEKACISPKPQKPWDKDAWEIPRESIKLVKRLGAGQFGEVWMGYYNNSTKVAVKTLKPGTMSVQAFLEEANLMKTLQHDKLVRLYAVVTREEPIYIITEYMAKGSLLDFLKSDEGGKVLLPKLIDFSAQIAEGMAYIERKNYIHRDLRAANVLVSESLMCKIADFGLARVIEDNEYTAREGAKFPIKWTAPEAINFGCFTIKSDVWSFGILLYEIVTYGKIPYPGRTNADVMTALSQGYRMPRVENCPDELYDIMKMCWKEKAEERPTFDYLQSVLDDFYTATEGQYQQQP
Sequence of Testis-specific serine/threonine-protein kinase 1 (Homo sapiens) (Q9BXA7 whole entry): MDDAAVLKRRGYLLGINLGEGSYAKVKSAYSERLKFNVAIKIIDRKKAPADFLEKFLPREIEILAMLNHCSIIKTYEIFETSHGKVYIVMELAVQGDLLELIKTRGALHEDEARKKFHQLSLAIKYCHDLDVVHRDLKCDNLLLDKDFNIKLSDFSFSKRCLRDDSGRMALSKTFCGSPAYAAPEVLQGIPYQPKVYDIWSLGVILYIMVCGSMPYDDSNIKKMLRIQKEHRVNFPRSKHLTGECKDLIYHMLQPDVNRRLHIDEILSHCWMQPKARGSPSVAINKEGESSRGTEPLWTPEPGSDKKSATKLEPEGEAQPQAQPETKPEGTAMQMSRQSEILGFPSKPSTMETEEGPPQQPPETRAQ
Sequence of Macrophage-stimulating protein receptor (Homo sapiens) (Q04912 25-304 limits assumed): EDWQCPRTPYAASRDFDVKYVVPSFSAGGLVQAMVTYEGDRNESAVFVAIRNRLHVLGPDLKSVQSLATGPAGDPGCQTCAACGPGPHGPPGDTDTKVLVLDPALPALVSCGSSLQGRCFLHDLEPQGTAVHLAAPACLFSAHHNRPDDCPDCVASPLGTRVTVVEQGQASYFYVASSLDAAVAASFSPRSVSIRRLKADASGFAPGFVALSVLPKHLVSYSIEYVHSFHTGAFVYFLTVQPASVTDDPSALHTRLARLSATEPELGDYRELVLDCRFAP
Sequence of Macrophage-stimulating protein receptor (Homo sapiens) (Q04912 310-1400 limits assumed): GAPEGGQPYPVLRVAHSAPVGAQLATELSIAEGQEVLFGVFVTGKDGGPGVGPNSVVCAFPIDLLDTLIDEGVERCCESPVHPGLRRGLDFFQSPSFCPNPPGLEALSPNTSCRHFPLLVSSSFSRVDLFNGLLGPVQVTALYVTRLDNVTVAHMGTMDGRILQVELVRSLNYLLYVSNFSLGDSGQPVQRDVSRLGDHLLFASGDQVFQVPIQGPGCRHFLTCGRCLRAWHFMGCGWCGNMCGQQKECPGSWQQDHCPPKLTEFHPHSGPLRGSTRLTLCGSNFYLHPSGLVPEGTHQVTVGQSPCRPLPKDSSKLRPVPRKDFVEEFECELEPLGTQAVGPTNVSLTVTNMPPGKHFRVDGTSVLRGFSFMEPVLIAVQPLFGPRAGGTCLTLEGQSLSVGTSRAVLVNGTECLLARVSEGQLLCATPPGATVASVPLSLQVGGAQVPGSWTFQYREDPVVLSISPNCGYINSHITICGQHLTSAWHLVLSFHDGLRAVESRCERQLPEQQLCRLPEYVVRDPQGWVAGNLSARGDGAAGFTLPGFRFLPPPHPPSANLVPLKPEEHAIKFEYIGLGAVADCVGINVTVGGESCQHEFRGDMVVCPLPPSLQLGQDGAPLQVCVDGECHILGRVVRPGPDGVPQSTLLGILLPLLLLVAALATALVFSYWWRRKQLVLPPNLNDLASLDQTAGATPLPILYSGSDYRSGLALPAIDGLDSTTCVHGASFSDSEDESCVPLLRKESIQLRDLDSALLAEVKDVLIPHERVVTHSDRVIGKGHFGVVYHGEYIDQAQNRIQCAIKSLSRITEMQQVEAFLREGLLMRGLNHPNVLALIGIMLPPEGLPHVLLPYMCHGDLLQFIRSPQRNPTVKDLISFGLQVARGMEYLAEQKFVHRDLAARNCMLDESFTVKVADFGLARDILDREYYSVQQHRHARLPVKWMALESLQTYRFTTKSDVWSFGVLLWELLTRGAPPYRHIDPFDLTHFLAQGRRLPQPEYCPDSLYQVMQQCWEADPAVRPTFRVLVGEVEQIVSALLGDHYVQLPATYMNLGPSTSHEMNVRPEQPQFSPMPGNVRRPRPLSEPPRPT
Sequence of Vascular endothelial growth factor receptor 1 (Homo sapiens) (P17948 whole entry): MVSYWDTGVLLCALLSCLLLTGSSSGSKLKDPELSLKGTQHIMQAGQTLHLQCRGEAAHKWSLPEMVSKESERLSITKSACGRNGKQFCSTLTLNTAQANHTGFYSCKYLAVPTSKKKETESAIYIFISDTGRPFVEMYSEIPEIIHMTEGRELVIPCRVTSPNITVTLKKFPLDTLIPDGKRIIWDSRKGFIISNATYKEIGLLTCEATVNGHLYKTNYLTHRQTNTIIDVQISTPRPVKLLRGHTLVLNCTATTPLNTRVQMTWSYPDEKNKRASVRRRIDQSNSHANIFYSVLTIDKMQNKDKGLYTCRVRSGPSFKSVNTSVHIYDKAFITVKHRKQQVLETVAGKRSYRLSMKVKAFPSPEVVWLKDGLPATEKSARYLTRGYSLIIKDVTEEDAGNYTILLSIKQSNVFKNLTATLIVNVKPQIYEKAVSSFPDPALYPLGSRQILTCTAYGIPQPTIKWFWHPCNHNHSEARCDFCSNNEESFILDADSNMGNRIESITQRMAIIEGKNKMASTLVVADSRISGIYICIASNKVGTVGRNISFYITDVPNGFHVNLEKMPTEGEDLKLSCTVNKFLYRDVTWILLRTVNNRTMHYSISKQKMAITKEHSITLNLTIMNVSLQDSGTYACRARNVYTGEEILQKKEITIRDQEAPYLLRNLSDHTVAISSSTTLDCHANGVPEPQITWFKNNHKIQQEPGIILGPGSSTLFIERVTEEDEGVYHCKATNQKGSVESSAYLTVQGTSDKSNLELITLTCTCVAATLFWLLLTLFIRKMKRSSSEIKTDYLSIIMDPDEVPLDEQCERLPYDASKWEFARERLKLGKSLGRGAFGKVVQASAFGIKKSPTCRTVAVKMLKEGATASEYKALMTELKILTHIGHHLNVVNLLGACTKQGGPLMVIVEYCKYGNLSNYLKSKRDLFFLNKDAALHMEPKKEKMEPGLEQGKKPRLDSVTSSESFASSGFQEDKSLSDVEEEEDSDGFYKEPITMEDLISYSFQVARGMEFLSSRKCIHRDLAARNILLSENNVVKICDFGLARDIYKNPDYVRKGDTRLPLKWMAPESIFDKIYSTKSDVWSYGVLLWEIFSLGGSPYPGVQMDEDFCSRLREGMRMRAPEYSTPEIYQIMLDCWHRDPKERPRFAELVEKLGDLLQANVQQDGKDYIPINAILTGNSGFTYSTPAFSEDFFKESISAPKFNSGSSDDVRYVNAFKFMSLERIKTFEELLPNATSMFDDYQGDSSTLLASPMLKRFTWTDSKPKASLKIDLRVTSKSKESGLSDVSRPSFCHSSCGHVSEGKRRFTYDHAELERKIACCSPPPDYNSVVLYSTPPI

Take `COCCNc1nc2ccc(C#CC3(O)CCCCC3)cc2n1-c1ccnc(N)n1`: the inhibition came to 17.3% in assay [1]; 0.8% in assay [2]; 5.3% in assay [3]; 1.1% in assay [4]; 11.7% in assay [5]; 1.9% in assay [6]. The inhibition is 9.8% in assay [7]; 6.2% in assay [8]; 0.3% in [9]; 10.8% in assay [10]; -6.3% in assay [11]; -2.7% in assay [12]. In addition, the inhibition was 10.9% in assay [13]; 0.5% in assay [14]; -6% in [15]; -2.8% in assay [16]; -1.4% in [17]; 3.6% in [18]. Moreover, the inhibition in [19] is 6.3%; in assay [20], 8.4%; in assay [21], 3.9%; in assay [22] it was 2.4%; in assay [23], 4.3%; in assay [24], 4.6%. The inhibition is -9.6% in [25]; 6.6% in [26]; 2.4% in assay [27]; 15% in assay [28]; 15.9% in assay [29]; 8.1% in assay [30]. Further, the inhibition in assay [31] worked out at 9.8%; in [32] it was 8.3%; in assay [33] it was 0.1%; in assay [34], 8.9%.

For the compound `CN1CCc2cc(-c3cnc4[nH]cc(C(=O)c5ccccc5Cl)c4c3)ccc2C1`, the inhibition was found to be 38.3% in assay [35]; 3.3% in assay [4]; 24.8% in assay [36]; 28% in assay [8]; 92.1% in assay [9]; 99.8% in [37]. Besides, the inhibition in assay [38] was determined as 0%; in assay [15], 18.6%; in assay [39] it was 42.4%; in [22], 11.9%; in assay [27] it was 38%; in assay [28], 43.5%.

As usually defined, the inhibition is the relative decrease from the control value, in per cent.
